Assay results reported in US9328106B2, “Cyclic ether pyrazol-4-yl-heterocyclyl-carboxamide compounds and methods of use” (Genentech, Inc., priority 2012, dated 2016).
Where two headings read alike, the source gives them in different places.

Columns and labels:
BaF3 PIM1 cells = assay: In vitro cell proliferation, BaF3 transfected with PIM1; assay type: cell-based, murine;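 further: murine IL-3-dependent pro-B BaF3 cells transfected with PIM1, compound exposure overnight at 37 °C under 5% CO2, viability read as luminescence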
[1] = tested on: MM1.S (multiple myeloma) cells; assay: In vitro cell proliferation, MM1.S multiple myeloma cells; assay type: cell-based; conditions: read-out: Prolif MM1S ATP (EC50);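 further: cells cultured in RPMI with 10% FBS and 2 mM L-Glutamine, seeded in 384-well plates, exposed to compound, cell viability measured by luminescence after CellTiter-Glo addition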
BaF3 parental cells = assay: In vitro cell proliferation, BaF3 parental line + IL3; assay type: cell-based, murine;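 further: BaF3 parental cells are murine IL-3 dependent pro-B cells grown with 2 ng/mL mIL-3, 384-well format, viability read by luminescence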
PIM1 = PIM1 (Homo sapiens (Human), UniProt P11309); assay: biochemical; assay type: biochemical; conditions: 20 pM PIM1, 1 μM FAM-peptide, 10 μM ATP, 90 minutes at room temperature; read-out: PIM1 LC3K (KI)
PIM1, sequence (P11309 whole entry): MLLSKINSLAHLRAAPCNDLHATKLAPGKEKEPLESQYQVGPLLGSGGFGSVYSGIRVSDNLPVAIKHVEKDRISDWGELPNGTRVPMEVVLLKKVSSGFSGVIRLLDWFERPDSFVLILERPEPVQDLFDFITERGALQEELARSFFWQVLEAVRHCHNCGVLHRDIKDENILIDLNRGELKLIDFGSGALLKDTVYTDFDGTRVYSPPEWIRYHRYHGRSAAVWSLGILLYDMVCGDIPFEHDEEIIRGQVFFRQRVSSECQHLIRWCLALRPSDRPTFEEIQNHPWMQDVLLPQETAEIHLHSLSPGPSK

[2] = read-out: Prolif BaF3 PIM1 (IC50), BaF3 PIM1 cells, incubated overnight, CELL TITER GLO
[3] = MM1.S cells, 72 hours, CELL TITER GLO
[4] = Mus musculus, BaF3, BaF3 parental, mIL-3, incubated overnight, CELL TITER GLO, read-out: Prolif BaF3 IL3 (IC50)
[5] = Mus musculus, BaF3, read-out: Prolif BaF3 PIM1 (IC50), BaF3 PIM1 cells, incubated overnight, CELL TITER GLO
[6] = Homo sapiens, MM1.S, 72 h, MM1.S cells, 72 hours, CELL TITER GLO

IC50 (BaF3 PIM1 cells; [2])	EC50 [1, 3]	Ki (PIM1)	IC50 (BaF3 PIM1 cells; [5])	EC50 [1, 6]	Compound	IC50 (BaF3 parental cells; [4])	IC50 (BaF3 parental cells; BaF3 parental, mIL-3, incubated overnight, CELL TITER GLO, read-out: Prolif BaF3 IL3 (IC50))	EC50 ([1]; Homo sapiens, MM1.S, 72 h)	IC50 (BaF3 parental cells; Mus musculus, BaF3, read-out: Prolif BaF3 IL3 (IC50))
115 nM	9200 nM	0.034 nM	–	–	Cn1ncc(NC(=O)c2nc(-c3c(F)cccc3F)sc2N)c1C12CCC(O)C(CC1)O2 (single isomer, unassigned) [Example 109, 5-amino-2-(2,6-difluorophenyl)-N-[5-(2-hydroxy-8-oxabicyclo[3.2.1]octan-5-yl)-1-methyl-pyrazol-4-yl]thiazole-4-carboxamide]	8300 nM	–	–	–
44.8 nM	2400 nM	0.017 nM	–	–	Cn1ncc(NC(=O)c2nc(-c3c(F)cccc3F)sc2N)c1C12CCC(O)C(CC1)O2 (single isomer, unassigned) [Example 110, 5-amino-2-(2,6-difluorophenyl)-N-[5-(2-hydroxy-8-oxabicyclo[3.2.1]octan-5-yl)-1-methyl-pyrazol-4-yl]thiazole-4-carboxamide]	–	9400 nM	–	–
–	–	0.003 nM	96.8 nM	6900 nM	C[C@H]1O[C@@H](c2c(NC(=O)c3csc(-c4c(F)cccc4F)n3)cnn2C)C[C@@H](N)[C@]1(C)O (single isomer, unassigned) [Example 341]	> 25000 nM	–	–	–
–	–	2.3 nM	12700 nM	21600 nM	C[C@@H]1O[C@@H](c2c(NC(=O)c3csc(-c4c(F)cccc4F)n3)cnn2C)C[C@H](N)[C@@]1(C)O (single isomer, unassigned) [Example 342]	10000 nM	–	–	–
–	–	0.069 nM	408 nM	348 nM	C[C@H](O)c1ccc(-c2nc(C(=O)Nc3cnn(C)c3[C@@H]3CC[C@@H](N)[C@H](F)CO3)cs2)c(F)c1F (single isomer, unassigned) [Example 365]	15900 nM	–	–	–
–	–	0.14 nM	302 nM	1700 nM	C[C@@H](O)c1ccc(-c2nc(C(=O)Nc3cnn(C)c3[C@@H]3CC[C@@H](N)[C@H](F)CO3)cs2)c(F)c1F (single isomer, unassigned) [Example 366]	10300 nM	–	–	–
–	–	0.057 nM	151 nM	4400 nM	Cn1ncc(NC(=O)c2csc(-c3c(F)cc([C@@H]4CCCO4)cc3F)n2)c1[C@@H]1CC[C@@H](N)[C@H](F)CO1 (single isomer, unassigned) [Example 371]	> 25000 nM	–	–	–
–	–	0.071 nM	37.2 nM	1700 nM	Cn1ncc(NC(=O)c2csc(-c3c(F)cc([C@H]4CCCO4)cc3F)n2)c1[C@@H]1CC[C@@H](N)[C@H](F)CO1 (single isomer, unassigned) [Example 380]	12200 nM	–	–	–
–	–	0.079 nM	1600 nM	7700 nM	Cn1ncc(NC(=O)c2nc(-c3c(F)cccc3F)sc2N)c1[C@H]1CC[C@@H](N)C(F)CO1 (stereo in doubt) [Example 148, 5-Amino-N-[5-[5-amino-6-fluoro-oxepan-2-yl]-1-methyl-pyrazol-4-yl]-2-(2,6-difluorophenyl)thiazole-4-carboxamide]	25000 nM	–	–	–
–	–	0.502 nM	2100 nM	8500 nM	CC[C@@H]1CC(N)CC[C@H](c2c(NC(=O)c3nc(-c4c(F)cccc4F)sc3N)cnn2C)O1 (stereo partly drawn) [Example 112, 5-amino-N-(5-((2R,7R)-5-amino-7-ethyloxepan-2-yl)-1-methyl-1H-pyrazol-4-yl)-2-(2,6-difluorophenyl)thiazole-4-carboxamide]	6900 nM	–	–	–
–	–	0.003 nM	13.6 nM	11.9 nM	C[C@@H]1C[C@@H](N)CC[C@H](c2c(NC(=O)c3nc(-c4c(F)cccc4F)sc3N)cnn2C)O1 [Example 121, 5-amino-N-(5-((2R,5S,7R)-5-amino-7-methyloxepan-2-yl)-1-methyl-1H-pyrazol-4-yl)-2-(2,6-difluorophenyl)thiazole-4-carboxamide]	3500 nM	–	–	–
–	–	0.006 nM	24.7 nM	109 nM	Cn1ncc(NC(=O)c2nc(-c3c(F)cccc3F)sc2N)c1C1CC[C@@H](N)[C@@H](F)CO1 (stereo partly drawn) [Example 129, 5-amino-N-(5-((5R,6R)-5-amino-6-fluorooxepan-2-yl)-1-methyl-1H-pyrazol-4-yl)-2-(2,6-difluorophenyl)thiazole-4-carboxamide]	6900 nM	–	–	–
–	–	0.27 nM	1500 nM	10000 nM	Cn1ncc(NC(=O)c2nc(-c3c(F)cccc3F)sc2N)c1C1CC[C@H](N)[C@H](F)CO1 (stereo partly drawn) [Example 131, 5-amino-N-(5-((5S,6S)-5-amino-6-fluorooxepan-2-yl)-1-methyl-1H-pyrazol-4-yl)-2-(2,6-difluorophenyl)thiazole-4-carboxamide]	6800 nM	–	–	–
–	–	0.00509 nM	15.2 nM	34.5 nM	Cn1ncc(NC(=O)c2nc(-c3ccccc3F)sc2N)c1[C@@H]1CC[C@@H](N)[C@H](F)CO1 [Example 317, 5-amino-N-(5-((2S,5R,6S)-5-amino-6-fluorooxepan-2-yl)-1-methyl-1H-pyrazol-4-yl)-2-(2-fluorophenyl)thiazole-4-carboxamide]	7900 nM	–	–	–
–	–	0.038 nM	129 nM	875 nM	Cn1ncc(NC(=O)c2csc(-c3c(F)cccc3F)n2)c1[C@@H]1CC[C@@H](N)[C@@H](F)CO1 [Example 319, N-(5-((2S,5R,6R)-5-amino-6-fluorooxepan-2-yl)-1-methyl-1H-pyrazol-4-yl)-2-(2,6-difluorophenyl)thiazole-4-carboxamide]	7800 nM	–	–	–
–	–	0.036 nM	24.4 nM	187 nM	Cn1ncc(NC(=O)c2nc(-c3ccccc3)sc2N)c1[C@@H]1CC[C@@H](N)[C@H](F)CO1 [Example 320, 5-amino-N-(5-((2S,5R,6S)-5-amino-6-fluorooxepan-2-yl)-1-methyl-1H-pyrazol-4-yl)-2-phenylthiazole-4-carboxamide]	> 25000 nM	–	–	–
–	–	0.0137 nM	50.6 nM	385 nM	Cn1ncc(NC(=O)c2csc(-c3c(F)cccc3F)n2)c1[C@@H]1CC[C@@H](N)[C@H](F)CO1 [Example 321, N-(5-((2S,5R,6S)-5-amino-6-fluorooxepan-2-yl)-1-methyl-1H-pyrazol-4-yl)-2-(2,6-difluorophenyl)thiazole-4-carboxamide]	4400 nM	–	–	–
–	–	0.072 nM	113 nM	1500 nM	Cn1ncc(NC(=O)c2csc(-c3ccccc3F)n2)c1[C@@H]1CC[C@@H](N)[C@H](F)CO1 [Example 322, N-(5-((2S,5R,6S)-5-amino-6-fluorooxepan-2-yl)-1-methyl-1H-pyrazol-4-yl)-2-(2-fluorophenyl)thiazole-4-carboxamide]	6300 nM	–	–	–
–	–	0.283 nM	186 nM	10000 nM	Cn1ncc(NC(=O)c2nc(-c3ccccc3C(F)(F)F)sc2N)c1[C@@H]1CC[C@@H](N)[C@H](F)CO1 [Example 323, 5-amino-N-(5-((2S,5R,6S)-5-amino-6-fluorooxepan-2-yl)-1-methyl-1H-pyrazol-4-yl)-2-(2-(trifluoromethyl)phenyl)thiazole-4-carboxamide]	> 25000 nM	–	–	–

Compound	IC50 (BaF3 PIM1 cells; [2])	EC50 [1, 3]	Ki (PIM1)	IC50 (BaF3 PIM1 cells; [5])	EC50 [1, 6]	IC50 (BaF3 parental cells; [4])	IC50 (BaF3 parental cells; BaF3 parental, mIL-3, incubated overnight, CELL TITER GLO, read-out: Prolif BaF3 IL3 (IC50))	EC50 ([1]; Homo sapiens, MM1.S, 72 h)	IC50 (BaF3 parental cells; Mus musculus, BaF3, read-out: Prolif BaF3 IL3 (IC50))
CO[C@@H]1COC(c2c(NC(=O)c3nc(-c4c(F)cccc4F)sc3N)cnn2C)CC[C@H]1N (stereo partly drawn) [Example 126, 5-amino-N-(5-((5R,6S)-5-amino-6-methoxyoxepan-2-yl)-1-methyl-1H-pyrazol-4-yl)-2-(2,6-difluorophenyl)thiazole-4-carboxamide]	–	–	0.026 nM	25.2 nM	–	–	–	21.7 nM	25000 nM
